Patent US20240158446A1, “CYCLIC COMPOUND HAVING SELECTIVE INHIBITORY ACTION ON KRAS OVER HRAS AND NRAS” (CHUGAI SEIYAKU KABUSHIKI KAISHA, priority 2021, published 2024)
Like-named read-outs stand apart in the source and are kept apart here.

Experiments:
[1] = molecular target: GDP-bound KRAS wild-type protein (Homo sapiens, UniProt P01116); test: Binding to KRAS by surface plasmon resonance (SPR), Single Cycle Kinetics; conditions: GDP-bound KRAS wild-type protein, read-out: KRAS KD
[2] = molecular target: GDP-bound NRAS wild-type protein (Homo sapiens, UniProt P01111); test: Binding to NRAS by surface plasmon resonance (SPR), Single Cycle Kinetics; conditions: for NRAS/KRAS (ratio of KD value for NRAS to KD value for KRAS): SPR, GDP-bound NRAS wild-type protein vs GDP-bound KRAS wild-type protein
Chain of GDP-bound NRAS wild-type protein (P01111 whole entry): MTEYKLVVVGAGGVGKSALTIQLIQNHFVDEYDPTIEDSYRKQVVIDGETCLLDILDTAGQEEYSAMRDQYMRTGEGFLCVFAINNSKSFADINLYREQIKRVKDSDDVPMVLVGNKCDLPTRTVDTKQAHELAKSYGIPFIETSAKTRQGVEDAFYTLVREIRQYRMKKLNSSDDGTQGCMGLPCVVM

[3] = molecular target: GDP-bound HRAS wild-type protein (Homo sapiens, UniProt P01112); test: Binding to HRAS by surface plasmon resonance (SPR), Single Cycle Kinetics; conditions: for HRAS/KRAS (ratio of KD value for HRAS to KD value for KRAS): SPR, GDP-bound HRAS wild-type protein vs GDP-bound KRAS wild-type protein
Chain of GDP-bound HRAS wild-type protein (P01112 whole entry): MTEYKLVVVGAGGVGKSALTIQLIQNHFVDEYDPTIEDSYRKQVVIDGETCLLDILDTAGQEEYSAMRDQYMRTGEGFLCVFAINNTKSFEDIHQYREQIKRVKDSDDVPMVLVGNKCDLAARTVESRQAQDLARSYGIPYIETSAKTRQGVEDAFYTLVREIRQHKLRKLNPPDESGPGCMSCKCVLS

[4] = test system: human lung cancer strain NCI-H441;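 further: cell proliferation inhibition after four days measured by CellTiter-Glo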

Chain of GDP-bound KRAS wild-type protein (P01116 whole entry): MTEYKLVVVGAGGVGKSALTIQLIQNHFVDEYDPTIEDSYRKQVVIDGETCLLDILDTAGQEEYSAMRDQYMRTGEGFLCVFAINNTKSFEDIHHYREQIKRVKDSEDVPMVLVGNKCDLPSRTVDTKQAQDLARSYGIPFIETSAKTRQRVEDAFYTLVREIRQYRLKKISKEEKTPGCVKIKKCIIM

Compound | Kd ([1]; SPR, Single Cycle Kinetics) [nM] | NRAS/KRAS (ratio of KD value for NRAS to KD value for KRAS) [2] | HRAS/KRAS (ratio of KD value for HRAS to KD value for KRAS) [3] | IC50 [4] [nM] | Kd ([1]; SPR, Single Cycle Kinetics, 1:1 binding model) [nM] | NRAS/KRAS (ratio of KD value for NRAS to KD value for KRAS) ([2]; KD ratio class) | HRAS/KRAS (ratio of KD value for HRAS to KD value for KRAS) ([3]; KD ratio class) | Kd ([1]; SPR Single Cycle Kinetics, 1:1 binding model) [nM] | NRAS/KRAS (ratio of KD value with respect to GDP-bound NRAS wild-type protein to KD value with respect to KRAS) ([2]; SPR KD ratio NRAS/KRAS, class symbols) | HRAS/KRAS (ratio of KD value with respect to GDP-bound HRAS wild-type protein to KD value with respect to KRAS) ([3]; SPR KD ratio HRAS/KRAS, class symbols)
CCCN1CC(=O)NC2(CCC2)C(=O)N(C)[C@@H](C2CCCC2)C(=O)N(C)[C@H](C(=O)N(C)C)CC(=O)N(C)[C@@H](CC)C(=O)N[C@@H]([C@@H](C)CC)C(=O)N(C)CC(=O)N(C)[C@H]2C/C=C\CCN(C2=O)[C@@H](Cc2ccc(C(F)(F)F)cc2)C(=O)N(C)CC(=O)N[C@@H](CCc2cc(F)c(C(F)(F)F)c(F)c2)C1=O [PP1141] | 0.32 | AA (a compound having 20 or more is denoted as AA) | A (a compound having 10 or more and less than 20 is denoted as A) | 424 |  |  |  |  |  | 
CCC(CC)[C@H]1C(=O)N(C)[C@H](C(=O)N(C)C)CC(=O)N(C)[C@@H](COC)C(=O)N[C@@H]([C@@H](C)CC)C(=O)N(C2CC2)CC(=O)N(C)[C@H]2C/C=C\CCN(C2=O)[C@@H](Cc2ccc(C)cc2)C(=O)N(C)CC(=O)N[C@@H](CCc2ccc(Cl)c(Cl)c2)C(=O)N2C[C@H](OC(C)C)C[C@H]2C(=O)NC2(CC(C)(C)C2)C(=O)N1C (stereo in doubt) [PP2509] | 2.6 | AA (a compound having 20 or more is denoted as AA) | A (a compound having 10 or more and less than 20 is denoted as A) | 91.3 |  |  |  |  |  | 
CCCO[C@H](C)[C@@H]1NC(=O)[C@H](COCC)N(C)C(=O)C[C@@H](C(=O)N(C)CC)N(C)C(=O)[C@H](C2CCCC2)N(C)C(=O)C2(CC(C)(C)C2)NC(=O)[C@@H]2C[C@H](C)CN2C(=O)[C@H](CCc2cc(F)c(C(F)(F)F)c(F)c2)NC(=O)CN(C)C(=O)[C@H](Cc2ccc(C)cc2)N2CC/C=C\C[C@@H](C2=O)N(C)C(=O)CN(C)C1=O [PP2426] | 0.31 | AA (a compound having 20 or more is denoted as AA) | A (a compound having 10 or more and less than 20 is denoted as A) | 48 |  |  |  |  |  | 
CCO[C@@H]1C[C@H]2C(=O)NC3(CC(C)(C)C3)C(=O)N(C)[C@@H](C(CC)CC)C(=O)N(C)[C@H](C(=O)N(C)C)CC(=O)N(C)[C@@H](COC)C(=O)N[C@@H]([C@@H](C)CC)C(=O)N(C)CC(=O)N(C)[C@H]3C/C=C\CCN(C3=O)[C@@H](CC3CCC(F)(F)CC3)C(=O)N(C)CC(=O)N[C@@H](CCc3cc(F)c(C(F)(F)F)c(F)c3)C(=O)N2C1 [PP2440] | 0.44 | A (a compound having 10 or more and less than 20 is denoted as A) | A (a compound having 10 or more and less than 20 is denoted as A) | 20.1 |  |  |  |  |  | 
CCO[C@@H]1C[C@H]2C(=O)NC3(CCC3)C(=O)N(C)[C@@H](C3CCCC3)C(=O)N(C)[C@H](C(=O)N3CCOCC3)CC(=O)N(C)[C@@H](CC(C)C)C(=O)N[C@@H]([C@@H](C)CC)C(=O)N3CC[C@H]3C(=O)N(C)[C@H]3C[C@@H](C)[C@@H](C)CN(C3=O)[C@@H](Cc3ccc(C(F)(F)F)cc3)C(=O)N(C)CC(=O)N[C@@H](CCc3cc(F)c(C(F)(F)F)c(F)c3)C(=O)N2C1 [PP1355] |  |  |  | 10.2 | 0.16 | A (a compound having 10 or more and less than 20 is denoted as A) | B (a compound having 3 or more and less than 10 is denoted as B) |  |  | 
CCO[C@@H]1C[C@H]2C(=O)NC3(CC(C)(C)C3)C(=O)N(C)[C@@H](C3CCCC3)C(=O)N(C)[C@H](C(=O)N(C)C)CC(=O)N(C)[C@@H](COC)C(=O)N[C@@H]([C@@H](C)CC)C(=O)N(C3CC3)CC(=O)N(C)[C@H]3C/C=C\CCN(C3=O)[C@@H](CC3CCCCC3)C(=O)N(C)CC(=O)N[C@@H](CCc3ccc(Cl)c(Cl)c3)C(=O)N2C1 [PP2563] |  |  |  | 108 |  |  |  | 2.3 | A (a compound having 10 or more and less than 20 is denoted as A) | A (a compound having 10 or more and less than 20 is denoted as A)
